Where a name gives a salt, the structure may show the parent alone.

The first test relates to HCT116 cells. Kind of test: HCT116 cytotoxic activity assay (Alamar Blue, 72 h). Type of test: cell-based. The following applies: Homo sapiens, HCT-116, 72 h compound exposure, greater than 500 nM but less than or equal to 2 μM. As to the method:
Representative compounds of this invention were tested for cytotoxicity using the above-described assay procedure with the following results: […]
A general note: Resazurin is reduced to fluorescent resorufin, in cell work by metabolically active cells.
In general, IC50 refers to the midpoint of a concentration-inhibition curve. `Nc1nc(Nc2ccc(Oc3ccnc(C(F)(F)F)c3)cc2)cc(-c2cccc(C(F)(F)F)c2)n1` [Example 197, 6-[3-(trifluoromethyl)phenyl]-N4*-(4-{[2-(trifluoromethyl)pyridin-4-yl]oxy}phenyl)pyrimidine-2,4-diamine] came in with an IC50 of 500 to 2000 nM. On to `N#Cc1cccc(-c2cc(Nc3ccc(Oc4ccnc(C(F)(F)F)c4)cc3)nc(N)n2)c1` [Example 198, 3-{2-amino-6-[(4-{[2-(trifluoromethyl)pyridin-4-yl]oxy}phenyl)amino]pyrimidin-4-yl}benzonitrile], for which the IC50 lay in the range of 500 to 2000 nM. Consider `COc1ccc(C(C)C)cc1-c1cc(Nc2ccc(Oc3ccnc(C(F)(F)F)c3)cc2)nc(N)n1` [Example 201, 6-(5-isopropyl-2-methoxyphenyl)-N4*-(4-{[2-(trifluoromethyl)pyridin-4-yl]oxy}phenyl)pyrimidine-2,4-diamine], for which the IC50 is 500 to 2000 nM. Same read-out and setting: as for `COc1ccncc1-c1cc(Nc2ccc(Oc3ccnc(C(F)(F)F)c3)cc2)nc(N)n1` [Example 203, 6-(4-methoxypyridin-3-yl)-N4*-(4-{[2-(trifluoromethyl)pyridin-4-yl]oxy}phenyl)pyrimidine-2,4-diamine], the figure is 500 to 2000 nM. With `CCSc1ccc(-c2cc(Nc3ccc(Oc4ccnc(C(F)(F)F)c4)cc3)nc(N)n2)cc1` [Example 207, 6-[4-(ethylthio)phenyl]-N4*-(4-{[2-(trifluoromethyl)pyridin-4-yl]oxy}phenyl)pyrimidine-2,4-diamine], the IC50 fell in the range of 500 to 2000 nM. Take `CCCCc1ccc(-c2cc(Nc3ccc(Oc4ccnc(C#N)c4)cc3)nc(N)n2)cc1` [Example 220, 4-(4-{[2-amino-6-(4-butylphenyl)pyrimidin-4-yl]amino}phenoxy) pyridine-2-carbonitrile]: the IC50 was 500 to 2000 nM.

Consider `NC(=O)c1cc(Oc2ccc(Nc3cc(-c4cccc(OCc5ccccc5)c4)nc(N)n3)cc2)ccn1` [Example 222, 4-[4-({2-amino-6-[3-(benzyloxy)phenyl]pyrimidin-4-yl}amino)phenoxy]pyridine-2-carboxamide], for which the IC50 is 500 to 2000 nM. `N#Cc1cc(Oc2ccc(Nc3cc(-c4cccc(O)c4)nc(N)n3)cc2)ccn1` [Example 226] gave an IC50 of 500 to 2000 nM.

The test is the same for the next values; noted with them: Homo sapiens, HCT-116, 72 h compound exposure, greater than 2 μM.
On to `Nc1nc(Nc2ccc(Oc3ccnc(C(F)(F)F)c3)cc2)cc(-c2cccc(OC(F)(F)F)c2)n1` [Example 216, 6-[3-(trifluoromethoxy)phenyl]-N4*- (4-{[2-(trifluoromethyl)pyridin-4-yl]oxy}phenyl)pyrimidine-2,4-diamine], for which the IC50 was more than 2000 nM. Regarding `Nc1nc(Nc2ccc(Oc3ccnc(C(F)(F)F)c3)cc2)cc(-c2ccc(OC(F)(F)F)cc2)n1` [Example 217, 6-[4-(trifluoromethoxy)phenyl]-N4*- (4-{[2-(trifluoromethyl)pyridin-4-yl]oxy}phenyl)pyrimidine-2,4-diamine], the IC50 was more than 2000 nM. Molecule `N#Cc1cc(Oc2ccc(Nc3cc(-c4ccc(-c5ccccc5)c(F)c4)nc(N)n3)cc2)ccn1` [Example 221, 4-(4-{[2-amino-6-(2-fluorobiphenyl-4-yl)pyrimidin-4-yl]amino}phenoxy) pyridine-2-carbonitrile] yielded an IC50 of more than 2000 nM. As for `COc1ccc(-c2cc(Nc3ccc(Oc4ccnc(C#N)c4)cc3)nc(N)n2)cc1OC` [Example 224, 4-(4-{[2-amino-6-(3,4-dimethoxyphenyl)pyrimidin-4-yl]amino}phenoxy)pyridine-2-carbonitrile], the IC50 was more than 2000 nM. Consider `COc1ccc(-c2cc(Nc3ccc(Oc4ccnc(C#N)c4)cc3)nc(N)n2)cc1` [Example 225, 4-(4-{[2-amino-6-(4-methoxyphenyl)pyrimidin-4-yl]amino}phenoxy) pyridine-2-carbonitrile 4-(4-{[6-amino-2-(4-methoxyphenyl)pyrimidin-4-yl]amino}phenoxy) pyridine-2-carbonitrile], for which the IC50 is more than 2000 nM.

Still in this test, the particulars now being: Homo sapiens, HCT-116, 72 h compound exposure, less than or equal to 500 nM.
Take `CN(C)c1ccc(-c2cc(Nc3ccc(Oc4ccnc(C(F)(F)F)c4)cc3)nc(N)n2)cc1` [Example 199, 6-[4-(dimethylamino)phenyl]-N4*-(4-{[2-(trifluoromethyl)pyridin-4-yl]oxy}phenyl)pyrimidine-2,4-diamine]: the IC50 is not above 500 nM. `CCc1cccc(-c2cc(Nc3ccc(Oc4ccnc(C(F)(F)F)c4)cc3)nc(N)n2)c1` [Example 200, 6-(3-ethylphenyl)-N4*-(4-{[2-(trifluoromethyl)pyridin-4-yl]oxy}phenyl)pyrimidine-2,4-diamine] came in with an IC50 not above 500 nM.

For `Cc1ccccc1-c1cc(Nc2ccc(Oc3ccnc(C(F)(F)F)c3)cc2)nc(N)n1` [Example 202, 6-(2-methylphenyl)-N4*-(4-{[2-(trifluoromethyl)pyridin-4-yl]oxy}phenyl)pyrimidine-2,4-diamine], the IC50 was not above 500 nM. Molecule `Nc1nc(Nc2ccc(Oc3ccnc(C(F)(F)F)c3)cc2)cc(-c2ccc(F)cc2F)n1` [Example 204, 6-(2,4-difluorophenyl)-N4*-(4-{[2-(trifluoromethyl)pyridin-4-yl]oxy}phenyl)pyrimidine-2,4-diamine] returned an IC50 not above 500 nM. `Nc1nc(Nc2ccc(Oc3ccnc(C(F)(F)F)c3)cc2)cc(-c2cccc(CO)c2)n1` [Example 205, (3-{2-amino-6-[(4-{[2-(trifluoromethyl)pyridin-4-yl]oxy}phenyl)amino]pyrimidin-4-yl}phenyl) methanol]: the IC50 was not above 500 nM.

As to `COc1cccc(-c2cc(Nc3ccc(Oc4ccnc(C(F)(F)F)c4)cc3)nc(N)n2)c1` [Example 206, 6-(3-methoxyphenyl)-N4*-(4-{[2-(trifluoromethyl)pyridin-4-yl]oxy}phenyl)pyrimidine-2,4-diamine], the IC50 was not above 500 nM. The molecule `Cc1ccc(-c2cc(Nc3ccc(Oc4ccnc(C(F)(F)F)c4)cc3)nc(N)n2)cc1N` [Example 208, 6-(3-amino-4-methylphenyl)-N4*-(4-{[2-(trifluoromethyl)pyridin-4-yl]oxy}phenyl)pyrimidine-2,4-diamine] showed an IC50 not above 500 nM. Consider `CC(C)c1ccc(-c2cc(Nc3ccc(Oc4ccnc(C(F)(F)F)c4)cc3)nc(N)n2)cc1` [Example 209, 6-(4-isopropylphenyl)-N4*-(4-{[2-(trifluoromethyl)pyridin-4-yl]oxy}phenyl)pyrimidine-2,4-diamine], for which the IC50 was not above 500 nM. `N#CCc1ccc(-c2cc(Nc3ccc(Oc4ccnc(C(F)(F)F)c4)cc3)nc(N)n2)cc1` [Example 210, (4-{2-amino-6-[(4-{[2-(trifluoromethyl)pyridin-4-yl]oxy}phenyl)amino]pyrimidin-4-yl}phenyl) acetonitrile]: the IC50 was not above 500 nM. Same read-out and setting: then `Cc1ccc(-c2cc(Nc3ccc(Oc4ccnc(C(F)(F)F)c4)cc3)nc(N)n2)cc1` [Example 211, 6-(4-methylphenyl)-N4*-(4-{[2-(trifluoromethyl)pyridin-4-yl]oxy}phenyl)pyrimidine-2,4-diamine], with not above 500 nM. With `Cc1cccc(-c2cc(Nc3ccc(Oc4ccnc(C(F)(F)F)c4)cc3)nc(N)n2)c1` [Example 212, 6-(3-methylphenyl)-N4*-(4-{[2-(trifluoromethyl)pyridin-4-yl]oxy}phenyl)pyrimidine-2,4-diamine], the IC50 was not above 500 nM. In turn, `Nc1nc(Nc2ccc(Oc3ccnc(C(F)(F)F)c3)cc2)cc(-c2cccnc2)n1` [Example 213, 6-pyridin-3-yl-N4*-(4-{[2-(trifluoromethyl)pyridin-4-yl]oxy}phenyl)pyrimidine-2,4-diamine] registered a half-inhibitory concentration (IC50) not above 500 nM.

In the case of `Nc1nc(Nc2ccc(Oc3ccnc(C(F)(F)F)c3)cc2)cc(-c2ccsc2)n1` [Example 214, 6-(3-thienyl)-N4*-(4-{[2-(trifluoromethyl)pyridin-4-yl]oxy}phenyl)pyrimidine-2,4-diamine], the IC50 is not above 500 nM.

`COc1ccc(OC)c(-c2cc(Nc3ccc(Oc4ccnc(C(F)(F)F)c4)cc3)nc(N)n2)c1` [Example 215, 6-(2,5-dimethoxyphenyl)-N4*-(4-{[2-(trifluoromethyl)pyridin-4-yl]oxy}phenyl)pyrimidine-2,4-diamine] gave an IC50 not above 500 nM. `Nc1nc(Nc2ccc(Oc3ccnc(C(F)(F)F)c3)cc2)cc(-c2cc(F)cc(F)c2)n1` [Example 218, 6-(3,5-difluorophenyl)-N4*-(4-{[2-(trifluoromethyl)pyridin-4-yl]oxy}phenyl)pyrimidine-2,4-diamine]: the IC50 is not above 500 nM. Consider `N#Cc1cc(Oc2ccc(Nc3cc(-c4ccc[nH]4)nc(N)n3)cc2)ccn1` [Example 219, 4-(4-{[2-amino-6-(1H-pyrrol-2-yl)pyrimidin-4-yl]amino}phenoxy) pyridine-2-carbonitrile hydrochloride], for which the IC50 is not above 500 nM.

`COc1ccc(-c2cc(Nc3ccc(Oc4ccnc(C#N)c4)cc3)nc(N)n2)cn1` [Example 223, 4-(4-{[2-amino-6-(6-methoxypyridin-3-yl)pyrimidin-4-yl]amino}phenoxy) pyridine-2-carbonitrile] showed an IC50 not above 500 nM.

Turning to `N#Cc1cc(Oc2ccc(Nc3cc(-c4ccc(O)cc4)nc(N)n3)cc2)ccn1` [Example 227, 4-(4-{[2-amino-6-(4-hydroxyphenyl)pyrimidin-4-yl]amino}phenoxy) pyridine-2-carbonitrile 4-(4-{[6-amino-2-(4-hydroxyphenyl)pyrimidin-4-yl]amino}phenoxy) pyridine-2-carbonitrile], the IC50 is not above 500 nM. `N#Cc1cc(Oc2ccc(Nc3cc(-c4ccoc4)nc(N)n3)cc2)ccn1` [Example 228, 4-(4-{[2-amino-6-(3-furyl)pyrimidin-4-yl]amino}phenoxy)pyridine-2-carbonitrile 4-(4-{[6-amino-2-(3-furyl)pyrimidin-4-yl]amino}phenoxy) pyridine-2-carbonitrile] registered an IC50 not above 500 nM. Same read-out and setting: then `N#Cc1cc(Oc2ccc(Nc3cc(-c4ccc(N)cc4)nc(N)n3)cc2)ccn1` [Example 229, 4-(4-{[2-amino-6-(4-aminophenyl)pyrimidin-4-yl]amino}phenoxy) pyridine-2-carbonitrile 4-(4-{[6-amino-2-(4-aminophenyl)pyrimidin-4-yl]amino}phenoxy)pyridine-2-carbonitrile], with not above 500 nM.
